The test system of assay [1] is hepatic cytokine and chemokine milieu. The assay is described as follows: Hepatic and plasma cytokine/chemokine levels after mirtazapine treatment (Luminex, LEGENDplex). It counts as in vivo, mouse. How it is done:
Male 8-10 week old C57BL/6 mice (Jackson Labs, Bar Harbor, Me.) were used. All procedures were approved by the University of Calgary Animal Care Committee (protocol numbers AC14-0129 and AC14-0128) and were performed in accordance with the guidelines of the Canadian Council on Animal Care. […] Mirtazapine was suspended in 1% aqueous solution of Tween 80, whereas the control group received 1% aqueous solution of Tween 80. Blood and liver samples were collected 5 hours post-mirtazapine treatment (or 16 hours post-Con A treatment). The detailed experimental protocols, lists of antibodies and reagents used, flow cytometry gating, and immune cell phenotyping strategies, are described herein. To delineate the effect of mirtazapine treatment on hepatic cytokine/chemokine expression a Luminex® assay was used using methods as previously described. […] A panel of mouse cytokines/chemokines were simultaneously measured in liver homogenate samples using a mouse MILLIPLEX kit (Millipore, USA) according to the manufacturer's protocol. The multiplexing analysis was performed using the Luminex 100 system (Luminex®, USA; Eve Technologies Corporation, Calgary, Canada). Total protein concentrations in liver homogenates were quantified using a BCA Protein Assay kit (Pierce, USA) according to manufacturers instructions. Results were expressed as pg of analyte per mg of protein. Additional plasma and hepatic measurements were made using a bead-based LEGENDplex immunoassay. Plasma and hepatic levels of CXCL10/IP-10 and CXCL9/Mig were measured using BioLegend's LEGENDplex™ bead-based immunoassays in a 96-well v-bottom microplate, according to the manufacturer's protocol. At the end of the assay, all samples were transferred from the plate to FACS tubes and read on a flow cytometer (Attune® Acoustic Focusing Cytometer). After data acquisition, flow cytometry standard (FCS) files were analyzed using Biolegend's LEGENDplex data analysis software to calculate the concentrations of individual chemokines, and results were expressed as pg of analyte per mg of protein. Alternatively, the flow cytometry standard (FCS) files were analyzed using FlowJo software (Treestar, San Carlos, Calif.).

For assay [2], the system named is hepatic macrophages (Kupffer cells), monocytes and B cells. As to the kind of experiment: Intravital microscopy (IVM) of liver after mirtazapine treatment. The class given is in vivo, mouse. The source says: Rationale and Relevant Preliminary Data: The normal liver macrophage pool consists of a large self-renewing, non-migratory population of KCs that are important for maintaining tissue homeostasis^1-3. KCs are situated within the sinusoidal blood flow and are an essential component of hepatic innate immunity, playing key roles in inflammation and defense^2, 4. In addition, KCs fulfill homeostatic functions important for normal liver physiology5. KCs are capable of considerable phenotypic plasticity and are highly sensitive to changes within the hepatic environment, including cytokines^2, 4, 6, 7. In response to environmental cues, KCs are activated and can be polarized along a spectrum between M1-like (induced by IFNγ, TNFα, IL-1β, IL-12, TLR4 agonists) and M2-like (induced by IL-4, IL-13, IL-10) phenotypes^2, 4, 6, 7, and can dynamically shift between these phenotypic extremes in response to changes in their microenvironment^1, 2, 4, 8. This shift is critical for regulating inflammatory and repair processes in the liver^1, 8, 9.

The mark [3] stands for this setting: pilot study, 4 hrs post-treatment, 20 mg/kg (FIG. 13).

As for `CN1CCN2c3ncccc3Cc3ccccc3C2C1` (centres unmarked) [Mirtazapine], the “Plasma levels of CXCL10/IP-10 and CXCL9/MIG vs vehicle” value in assay [1] (5 hours post-treatment) was “significantly increased”. In addition, in assay [1] (5 hours post-treatment, ip), the “Increase in hepatic CXCL9 level vs vehicle” value is on record as roughly 7 fold, the “Increase in hepatic CXCL10 level vs vehicle” value is roughly 120 fold, the “Increase in hepatic GM-CSF level vs vehicle” value was roughly 1.5 fold and the “Increase in hepatic IFNγ level vs vehicle” value is given as roughly 8 fold. In assay [1] (5 hours post-treatment, ip), the “Increase in hepatic IL-1β level vs vehicle” value is on record as roughly 1.5 fold, the “Increase in hepatic IL-4 level vs vehicle” value is roughly 30 fold, the “Increase in hepatic IL-5 level vs vehicle” value was roughly 2 fold and the “Increase in hepatic IL-6 level vs vehicle” value is roughly 1.5 fold. In assay [1] (5 hours post-treatment, ip), the “Increase in hepatic IL-12 level vs vehicle” value is roughly 1.5 fold, the “Increase in hepatic IL-12p40 level vs vehicle” value is on record as roughly 1.5 fold, the “Increase in hepatic IL-12p70 level vs vehicle” value is listed as roughly 1.5 fold and the “Increase in hepatic IL-15 level vs vehicle” value is given as roughly 1.5 fold. Moreover, in assay [1] (5 hours post-treatment, ip), the “Increase in hepatic IL-17 level vs vehicle” value was roughly 1.5 fold and the “Increase in hepatic TNFα level vs vehicle” value is roughly 1.5 fold. Besides, the “Hepatic levels of IL-2, IL-10, IL-13, IL-7, IL-9, M-CSF, G-CSF, LIF, IL-3, CCL3/MIP-1α, CCL4/MIP-1β, CXCL2/MIP-2, CCL11/Eotaxin-1, CCL5/RANTES” value in assay [1] (5 hours post-treatment, data not shown) is recorded as “unaltered”. In assay [1] (5 hours post-treatment, in words), the “Hepatic levels of the chemokines CXCL10/IP-10 and CXCL9/MIG vs vehicle” value is given as “striking increases”. The “Hepatic levels of CCL2/MCP-1, CCL4/MIP-1β, CCL5/RANTES, CCL11/eotaxin-1, CCL3/MIP-1a” value in assay [1] (after mirtazapine treatment) was “no significant changes”. For the same compound, in assay [1] (setting [3]), the “Hepatic IL-10 levels” value was “unchanged” and the “Increase in hepatic IL-4 levels” value turned out to be 50 fold. In addition, the “Interactions between hepatic B cells (CD19+) and hepatic macrophages (F4/80+)” value in assay [2] (20 mg/kg, 3 hrs post-treatment, preliminary data) is on record as “trend towards increased interactions”. Besides, in assay [2] (1 hr after treatment (FIG. 14)), the “Kupffer cell (F4/80+) activation: retraction of cellular processes, rounding of cell shape” value was “activation of KCs”. Moreover, in assay [2] (~20 hrs post-treatment, pilot study), the “Hepatic monocyte populations in CCR2RFP/+CX3CR1GFP/+ reporter mice” value is “apparent increase in overall hepatic monocyte numbers coupled with the appearance of CCR2+CX3CR1+ double positive monocytes”.

Source of the values: patent publication US11510928B2, “Use of mirtazapine in the treatment of inflammatory disorders, autoimmune disease and PBC” (UTI Limited Partnership, priority 2017, dated 2022).
